Source: patent US9850221B2, “Sulfated and unsulfated flavonoid oligomers as cancer therapeutics” (VIRGINIA COMMONWEALTH UNIVERSITY, priority 2013, dated 2017)

Assays:
CSC markers mRNA = assay: Real-time PCR of CSC marker mRNA; type: cell-based, human; conditions: 6 hours following treatment
Method: Real-Time PCR Analysis. Total RNA was isolated using the mirVana™ miRNA Isolation Kit (Life technologies, Grand Island, N.Y.). 1 μg total RNA was reverse transcribed using First-Strand cDNA Synthesis Kit using hexamer reverse primer (Affymetrix). Real time QPCR was performed using RT^2 SYBR® Green qPCR Master mix (Qiagen) in a 7500 fast real time machine (Applied Biosystem). Relative expressions of mRNA were calculated using ΔΔCT methods using GAPDH as a loading control.

[1] = system: Panc-1 (pancreatic) cancer cell lines; assay: Primary spheroid formation assay, Panc-1; type: cell-based, human
Method: (§1) Primary (1°) Colonosphere Formation Assay. For primary sphere formation, cells were plated in non-treated, low adhesion, 96 wells plate at the concentration of 100 cells/100 μL/well in stem cell media (SCM) that consisted of DMEM:F12:AA (Gibco), supplemented with 1×B27 (Gibco), 20 ng/mL epidermal growth factor and 10 ng/mL fibroblast growth factor (Sigma). After four hour of incubation, vehicle (control) or NSGM at the desired concentrations were added to each well (at least in triplicates for each sample). On day five, numbers of spheres ranging from […] in diameter were counted using phase contrast microscope and percent inhibition was calculated compared to control.

[2] = system: HCT-116 cells, grown in spheroid condition; assay: Apoptosis assay (annexin V/propidium iodide and acridine orange/ethidium bromide); type: cell-based, human
Method: Apoptosis Assay. Human colon cancer HCT-116 cells, grown in spheroid condition were treated with vehicle or NSGMs for 24 hours. Following which cells were trypsinized and single cells were re-suspended at 10^6 cells/mL in PBS buffer. Two different methods were used to assess apoptosis induction. In the first methods, cells were incubated with propidium iodide and Annexin V-APC (ebioscience) and flow cytometric analyses were performed as above. […] Briefly, a small volume of cell suspension was mounted on a glass slide and incubated with 1 μl of AO/EB solution and mixed gently just prior to microscopy and quantification. At least 500 cells in 10-15 fields were examined in each sample using Nikon ECLIPSE E800M fluorescence microscope using 20× objective. […] The data was expressed as apoptosis index=[([apoptotic cells (NSGMs)/total cells (NSGMs)]/[apoptotic cells (vehicle)/total cells (vehicle)]).

[3] = system: self-renewal factors OCT4, BMI-1, c-MYC; assay: Western blot of self-renewal factors in spheroids; type: cell-based, human; conditions: 100 μM, HT-29
Method: (§2) Western Blotting Analysis. Western blot analysis was performed according to the standard protocol described in the literature. Briefly, HT-29 cells were plated in serum-free SCM in a low adhesion 6-well plate to obtain spheroids. Mature spheroids were treated on day 4 after plating, with vehicle or NSGMs for indicated time and cells were solubilized in lysis buffer (20 mM Na3PO4, 100 mM NaCl, 2 mM EDTA, 1% Nonidet P-40, 2.5 mM Na3VO4) containing protease (Roche) as well as phosphatase inhibitor cocktails (Sigma). Following centrifugation at 14,000 g for 15 min, the supernatant was used for Western blot analysis. In all analyses, protein concentration was determined by the Bio-Rad Protein Assay kit (Bio-Rad). Approximately 25-50 μg of protein was separated by polyacrylamide gel electrophoresis and was transferred to PVDF membrane (Bio-Rad). Blocking was done with 5% low fat milk powder for 1 hr followed by overnight incubation with primary antibody (dilution 1:1000): anti-CD44 (Cell Signaling), anti-EpCAM (Cell Signaling), anti-LGR5 (Origene), anti-CD133 ((Miltenyi Biotec), anti-CXCR4 (Abeam), anti-OCT4 (Cell Signaling), anti-BMI-1 (Millipore), anti-c-MYC (Millipore) and anti-CK20 (Abeam). This was followed by incubation with appropriate secondary antibody and protein bands were visualized using the enhanced chemiluminescence detection system and imaged with LAS-3000 Imaging System (FUJIFILM). Densitometry was determined by AIDA image analyzer software (Raytest) and results were calculated as relative intensity compared to control. All experiments were performed at least three times.

HCT-116 = assay: Primary spheroid formation assay, HCT-116; type: cell-based, human; conditions: HCT-116 (p53 null)
Method: as §1
(§3) In this screen, sulfated NSGMs that inhibit HT-29 growth under spheroid conditions, but not under monolayer conditions, were then assessed for retention of 2° and 3° spheroid growth inhibition profiles in the absence of NSGM. The latter screen is of particular importance as primary spheroid growth although selective for CSCs doses not distinguish between non self-renewing progenitors and self-renewing CSCs. […] These 11 NSGMs belonged to G2, G4, G11 and G12 scaffolds but only four of the six G2 molecules, one of the two G4, four of the seven G11 and two of the five G12 molecules satisfied the first screen.

HT-29 cells [4] = assay: Primary (1°) colonosphere formation assay, HT-29 (Screen 1); type: cell-based, human; conditions: steep dose-response profile; read-out: apparent IC50 for primary spheroid inhibition
Method: as §1, §3

LGR5 = assay: Flow cytometry analysis of CSC markers in HT-29 spheroids; type: cell-based, human; conditions: 100 μM, vs vehicle-treated controls
Method: Flow Cytometry Analysis. Human colon cancer HT-29 cells, grown in spheroid or monolayer condition were treated with vehicle or NSGMs for 24 hours, were trypsinized and single cells were re-suspended at 10^6 cells/mL in PBS buffer. Cells were incubated with fluorophore conjugated antibody for 30 minutes at 4° C. and washed once with PBS buffer prior to analysis. Following antibody and dilution were used: LGR5-PE) (Dilution 1:50, Origene), DCLK1 (Dilution 1:33, Abeam). Cell sorting was performed using FACSAria™ II High-Speed Cell Sorter (BD Biosciences) and data were analyzed with FCS Express 4 Flow Cytometry software (De-Novo Software).

[5] = system: CSC markers CD44, CD133, EpCAM, LGR5, CXCR-4; assay: Western blot of CSC markers in HT-29 spheroids; type: cell-based, human; conditions: 100 μM; for reduction of expression of CSC markers (CD44, CD133, EpCAM, LGR5, CXCR-4): HT-29 spheroids, Western blot densitometry vs vehicle
Method: as §2

[6] = Animal weight in mice tumor xenograft model; type: in vivo, NOD-SCID mice; conditions: intratumoral, appx 1.125 mg three times a week for three weeks
Method: One million HCT116 cells were washed with PBS and injected subcutaneously (0.2 mL cell suspension in 50% matrigel) into 6-week-old NOD-SCID mice (Taconic Incorporation, Germantown, N.Y.) on both flanks. Once the tumors become palpable, 16 mice were randomized into two groups. In the treatment group, animals received direct intratumoral (IT) injection of appx 1.125 mg of G2.2 dissolved in 75 μl PBS (pH=7.4) solution three times a week for three weeks (a total of 10 mg of G2.2 over three weeks). Control animals were also received IT injection with 75 μl of vehicle alone (PBS) on the same schedule. Tumor size was measured three times a week using caliber and tumor volume was calculated as previously described. Mice were also weighed three times a week. All the animals were sacrificed within 1 week after completion of therapy using approved method of CO2 asphyxiation. Tumor xenografts were minced with scalpels blade into small pieces and then digested in DMEM/F12 medium containing 300 units/mL collagenase (Stem Cell Technologies) and 100 units/mL hyaluronidase (Stem Cell Technologies) for 1 hr at 37° C. Cells were then washed and re-suspended to a final concentration of 10^6 cell/mL in DMEM/2% FBS. Cell suspensions from the tumor samples were incubated with PE conjugated LGR5 or CXCR4 antibody for 30 minutes and washed two times with PBS buffer and then analyzed (FIG. 18A-B). […]

HT-29 cell line = assay: MTT cell proliferation assay, monolayer growth; type: cell-based, human; conditions: monolayer conditions
Method: Cell Proliferation Assay. Cell proliferation was evaluated by (3-(4,5-dimethylthiazol-2-yl)-2,5-diphenyltetrazolium bromide) MTT cell proliferation assay. For HT-29 cell line approximately 2.5×10^3 cells/100 μL/well were plated in 96-well tissue culture treated plate. After overnight incubation at 37° C. vehicle (control) or NSGM was added at the desired concentration and the cells were further incubated for 60-72 h. At the end of the incubation, 10 μL of 5 mg/mL MTT solution (Sigma) made in phosphate buffered saline (PBS) (Gibco) was added to each well and incubated for minimum of 2 to 3 hr until crystals formation was observed. Following this, 150 μL of 4 mM HCl (Sigma) in isopropanol solution was added drop wise to each well and the mixture was triturated until the crystals dissolve completely. Finally, the plate was placed on the spectrophotometer reader and read at 590 nm and growth inhibition was calculated as percent of control.

HT-29 colon cancer cells = assay: Cell cycle distribution in spheroid cells; type: cell-based, human; conditions: 24 hours, 100 μM, vs vehicle
CK20 = assay: Differentiation assay (CK20 expression) in colonosphere cells; type: cell-based, human; conditions: spheroid cells on collagen, 2.5% serum, Western blot and immunocytochemistry
Method: Differentiation Assay. Single cell suspension from mature HT-29 colonosphere pre-treated with vehicle or G2.2 for 24 hours were plated on collagen coated glass cover slips or flasks in the presence of media supplemented with 2.5% FBS containing G2.2 or vehicle. At indicated time points, cells lysate was examined for CK-20 expression with western-blot as above. Alternatively, cells were fixed with 4% paraformaldehyde for 20 minutes at room temperature, permeabilized for 5 min in 0.5% Triton X-100 solution and blocked in PBS containing 1% BSA for one hour prior to incubation with anti-CK-20 antibody (Abeam) for 2 hours. Cells were then washed, incubated for 60 min with Alexa Fluor conjugate secondary antibodies, rinsed with blocking buffer and mounted on slides with DAPI containing ProLong® Gold Antifade Reagent (Invitrogen). Fluorescently labeled cells were examined using a Zeiss LSM700 laser scanning confocal microscope (Zeiss Micro imaging Inc.). Alexa Flour® 555 signals were imaged sequentially at 40× magnification in frame-interlaced mode to eliminate cross talk between channels.

HCT116 cells = assay: Mice tumor xenograft model, intratumoral G2.2; type: in vivo, NOD-SCID mice
Method: One million HCT116 cells were washed with PBS and injected subcutaneously (0.2 mL cell suspension in 50% matrigel) into 6-week-old NOD-SCID mice (Taconic Incorporation, Germantown, N.Y.) on both flanks. Once the tumors become palpable, 16 mice were randomized into two groups. In the treatment group, animals received direct intratumoral (IT) injection of appx 1.125 mg of G2.2 dissolved in 75 μl PBS (pH=7.4) solution three times a week for three weeks (a total of 10 mg of G2.2 over three weeks). Control animals were also received IT injection with 75 μl of vehicle alone (PBS) on the same schedule. Tumor size was measured three times a week using caliber and tumor volume was calculated as previously described. Mice were also weighed three times a week. All the animals were sacrificed within 1 week after completion of therapy using approved method of CO2 asphyxiation. Tumor xenografts were minced with scalpels blade into small pieces and then digested in DMEM/F12 medium containing 300 units/mL collagenase (Stem Cell Technologies) and 100 units/mL hyaluronidase (Stem Cell Technologies) for 1 hr at 37° C. Cells were then washed and re-suspended to a final concentration of 10^6 cell/mL in DMEM/2% FBS. Cell suspensions from the tumor samples were incubated with PE conjugated LGR5 or CXCR4 antibody for 30 minutes and washed two times with PBS buffer and then analyzed (FIG. 18A-B). […] However, none of these values were statistically significant (p>0.1).

HT-29 cells [7] = assay: Secondary (2°) and tertiary (3°) colonosphere assay, HT-29 (Screen 2); type: cell-based, human; conditions: no NSGM in 2° and 3° growth assays
Method: Secondary (2°) and Tertiary (3°) Colonosphere Assay. For secondary colonospheres, the 96-well plate of primary spheres was centrifuged at speed of 1000 rpm for 1 min and the supernatant was removed. Spheres that settled at the base of the plate were trypsinized with 20 μL/well and single cell suspension was prepared using vigorous mechanical dissociation. The numbers of viable cell were counted with 1:5 ratio of cell:trypan blue and then re-plated at 100 cells/[…] in SCM media in a low adhesion plate. No further treatment with NSGMs was performed. Numbers of spheres were counted as above on day 5. The same method was repeated for tertiary spheres.
The 11 sulfated NSGMs were then studied for their effect on 2° and 3° sphere formation (HT-29 and HCT-116) in Screen 2. By design, this screen reflects a test of true self-renewability of CSCs.^2,3 Single cell suspension obtained from primary spheres formed above was then cultured in the absence of NSGM.

[8] = compared to vehicle treated xenografts, flow cytometry

SMILES: O=c1c(OS(=O)(=O)[O-])c(-c2ccc(OS(=O)(=O)[O-])c(OS(=O)(=O)[O-])c2)oc2cc(OS(=O)(=O)[O-])cc(OCCCOc3cc(OS(=O)(=O)[O-])cc4oc(-c5ccc(OS(=O)(=O)[O-])c(OS(=O)(=O)[O-])c5)c(OS(=O)(=O)[O-])c(=O)c34)c12.[Na+].[Na+].[Na+].[Na+].[Na+].[Na+].[Na+].[Na+] [G2.2]
- mRNA levels of several CSC markers (CSC markers mRNA): marked decrease
- inhibition of spheroid formation, potency relative to HT-29 [1]: essentially identical potency
- induction of apoptosis in spheroid cells ([2]; annexin V labeling and acridine orange/ethidium bromide staining, 100 μM, 24 hours, vs vehicle): 2 to 3 fold
- induction of apoptosis in CSC-poor monolayer counterparts ([2]; monolayer cells): did not induce apoptosis
- BMI-1 expression [3]: significant inhibition
- OCT-4 levels [3]: little effect
- c-MYC expression [3]: significant inhibition
- inhibition of spheroid formation, potency relative to HT-29 (HCT-116): essentially identical potency
- IC50 (HT-29 cells [4]): ~58 µM
- reduction in LGR5 (hi) cells (LGR5): 39%
- protein expression of CSC markers (LGR5, CXCR4) ([5]; 6 hours): minimal change
- protein expression of CSC markers (LGR5, CXCR4) ([5]; 24 hours): significant decrease
- reduction of expression of CSC markers (CD44, CD133, EpCAM, LGR5, CXCR-4) [5]: 25-55%
- overall animal weight [6]: no effect
- inhibition of monolayer growth (bulk tumor cells) (HT-29 cell line): minimal effect
- proportion of spheroid cells in G1 phase (cell cycle progression) (HT-29 colon cancer cells): small increase
- CK20 expression (colonic differentiation marker) (CK20): modest induction
- reduction in tumor volume (HCT116 cells; between days 5-19, intratumoral, not statistically significant (p>0.1)): 20-42%
- attenuation of CXCR4 positive cells in xenografts (HCT116 cells; [8]): ~75%
- attenuation of LGR5 positive cells in xenografts (HCT116 cells; [8]): ~78%

SMILES: O=c1c(OS(=O)(=O)[O-])c(-c2ccc(OS(=O)(=O)[O-])c(OS(=O)(=O)[O-])c2)oc2cc(OS(=O)(=O)[O-])cc(OCCOc3cc(-c4oc5cc(OS(=O)(=O)[O-])cc(OCCOc6cc(OS(=O)(=O)[O-])cc7oc(-c8ccc(OS(=O)(=O)[O-])c(OS(=O)(=O)[O-])c8)c(OS(=O)(=O)[O-])c(=O)c67)c5c(=O)c4OS(=O)(=O)[O-])ccc3OS(=O)(=O)[O-])c12.[Na+].[Na+].[Na+].[Na+].[Na+].[Na+].[Na+].[Na+].[Na+].[Na+].[Na+] [G4.1]
- reduction of expression of CSC markers (CD44, CD133, EpCAM, LGR5, CXCR-4) [5]: no effect
- Screen 2 outcome (2° and 3° spheroid growth inhibition) (HT-29 cells [7]): completely failed
